Measurements from ChEMBL document CHEMBL5724914, “Linking interpersonal differences in gut microbiota composition and drug biotransformation activity” (2024).

conditions: human gut metagenome, 24 h, 2 µM
Note: call rule not given here.

Row | Bacterial Biotransformation | Compound
1 | Compound NOT metabolized | Br.CN(C)CCCC1(c2ccc(F)cc2)OCc2cc(C#N)ccc21 (stereo not given) [CITALOPRAM HYDROBROMIDE]
2 | Compound metabolized | Cc1ccc(S(=O)(=O)NC(=O)NN2CC3CCCC3C2)cc1 (stereo not given) [GLICLAZIDE]

conditions: human gut metagenome, 24 h, 2 µM; remark: another data set of the same source

Row | Bacterial Biotransformation | Compound
3 | Compound NOT metabolized | Br.CN(C)CCCC1(c2ccc(F)cc2)OCc2cc(C#N)ccc21 (stereo not given) [CITALOPRAM HYDROBROMIDE]
4 | Compound metabolized | Cc1ccc(S(=O)(=O)NC(=O)NN2CC3CCCC3C2)cc1 (stereo not given) [GLICLAZIDE]

conditions: human gut metagenome, 24 h, 2 µM; remark: another data set of the same source

Row | Bacterial Biotransformation | Compound
5 | Compound metabolized | Br.CN(C)CCCC1(c2ccc(F)cc2)OCc2cc(C#N)ccc21 (stereo not given) [CITALOPRAM HYDROBROMIDE]
6 | Compound metabolized | Cc1ccc(S(=O)(=O)NC(=O)NN2CC3CCCC3C2)cc1 (stereo not given) [GLICLAZIDE]

test: (§1) The drug is tested on Z-007 corresponding to rat gut metagenome with ENA study accession number: PRJEB37062 and ENA sample accession number: ERS12561807 for biotransformation under anaerobic condition. The drug concentrations were measured over 9 timepoints collected between 0 and 24 hours of incubation by liquid-chromatography-coupled mass spectrometry (LC–MS); conditions: 2 µM

Row | Bacterial Biotransformation | Compound
7 | Compound NOT metabolized | Br.CN(C)CCCC1(c2ccc(F)cc2)OCc2cc(C#N)ccc21 (stereo not given) [CITALOPRAM HYDROBROMIDE]
8 | Compound NOT metabolized | Cc1ccc(S(=O)(=O)NC(=O)NN2CC3CCCC3C2)cc1 (stereo not given) [GLICLAZIDE]

test: as §1, with “Z-005” for “Z-007”, “to” for “to rat gut”, “ERS12561805” for “ERS12561807”; conditions: 2 µM

Row | Bacterial Biotransformation | Compound
9 | Compound NOT metabolized | Br.CN(C)CCCC1(c2ccc(F)cc2)OCc2cc(C#N)ccc21 (stereo not given) [CITALOPRAM HYDROBROMIDE]
10 | Compound metabolized | Cc1ccc(S(=O)(=O)NC(=O)NN2CC3CCCC3C2)cc1 (stereo not given) [GLICLAZIDE]

conditions: human gut metagenome, 24 h, 2 µM; remark: another data set of the same source

Row | Bacterial Biotransformation | Compound
11 | Compound NOT metabolized | Br.CN(C)CCCC1(c2ccc(F)cc2)OCc2cc(C#N)ccc21 (stereo not given) [CITALOPRAM HYDROBROMIDE]
12 | Compound metabolized | Cc1ccc(S(=O)(=O)NC(=O)NN2CC3CCCC3C2)cc1 (stereo not given) [GLICLAZIDE]

conditions: human gut metagenome, 24 h, 2 µM; remark: another data set of the same source

Row | Bacterial Biotransformation | Compound
13 | Compound metabolized | Br.CN(C)CCCC1(c2ccc(F)cc2)OCc2cc(C#N)ccc21 (stereo not given) [CITALOPRAM HYDROBROMIDE]
14 | Compound metabolized | Cc1ccc(S(=O)(=O)NC(=O)NN2CC3CCCC3C2)cc1 (stereo not given) [GLICLAZIDE]

conditions: human gut metagenome, 24 h, 2 µM; remark: another data set of the same source

Row | Bacterial Biotransformation | Compound
15 | Compound metabolized | Br.CN(C)CCCC1(c2ccc(F)cc2)OCc2cc(C#N)ccc21 (stereo not given) [CITALOPRAM HYDROBROMIDE]
16 | Compound metabolized | Cc1ccc(S(=O)(=O)NC(=O)NN2CC3CCCC3C2)cc1 (stereo not given) [GLICLAZIDE]

conditions: human gut metagenome, 24 h, 2 µM; remark: another data set of the same source

Row | Bacterial Biotransformation | Compound
17 | Compound metabolized | Br.CN(C)CCCC1(c2ccc(F)cc2)OCc2cc(C#N)ccc21 (stereo not given) [CITALOPRAM HYDROBROMIDE]
18 | Compound metabolized | Cc1ccc(S(=O)(=O)NC(=O)NN2CC3CCCC3C2)cc1 (stereo not given) [GLICLAZIDE]

test: as §1, with “Z-029” for “Z-007”, “ERS12561828” for “ERS12561807”; conditions: 2 µM

Row | Bacterial Biotransformation | Compound
19 | Compound NOT metabolized | Br.CN(C)CCCC1(c2ccc(F)cc2)OCc2cc(C#N)ccc21 (stereo not given) [CITALOPRAM HYDROBROMIDE]
20 | Compound NOT metabolized | Cc1ccc(S(=O)(=O)NC(=O)NN2CC3CCCC3C2)cc1 (stereo not given) [GLICLAZIDE]

conditions: human gut metagenome, 24 h, 2 µM; remark: another data set of the same source

Row | Bacterial Biotransformation | Compound
21 | Compound metabolized | Br.CN(C)CCCC1(c2ccc(F)cc2)OCc2cc(C#N)ccc21 (stereo not given) [CITALOPRAM HYDROBROMIDE]
22 | Compound metabolized | Cc1ccc(S(=O)(=O)NC(=O)NN2CC3CCCC3C2)cc1 (stereo not given) [GLICLAZIDE]

test: as §1, with “on WLS-240” for “on Z-007”, “to human” for “to rat”, “number: ERS12561773” for “number: ERS12561807”; conditions: 2 µM

Row | Bacterial Biotransformation | Compound
23 | Compound metabolized | Br.CN(C)CCCC1(c2ccc(F)cc2)OCc2cc(C#N)ccc21 (stereo not given) [CITALOPRAM HYDROBROMIDE]
24 | Compound metabolized | Cc1ccc(S(=O)(=O)NC(=O)NN2CC3CCCC3C2)cc1 (stereo not given) [GLICLAZIDE]

test: as §1, with “on WLS-082” for “on Z-007”, “to human” for “to rat”, “number: ERS12561751” for “number: ERS12561807”; conditions: 2 µM

Row | Bacterial Biotransformation | Compound
25 | Compound NOT metabolized | Br.CN(C)CCCC1(c2ccc(F)cc2)OCc2cc(C#N)ccc21 (stereo not given) [CITALOPRAM HYDROBROMIDE]
26 | Compound metabolized | Cc1ccc(S(=O)(=O)NC(=O)NN2CC3CCCC3C2)cc1 (stereo not given) [GLICLAZIDE]

test: as §1, with “on WLS-350” for “on Z-007”, “to human” for “to rat”, “number: ERS12561789” for “number: ERS12561807”; conditions: 2 µM

Row | Bacterial Biotransformation | Compound
27 | Compound NOT metabolized | Br.CN(C)CCCC1(c2ccc(F)cc2)OCc2cc(C#N)ccc21 (stereo not given) [CITALOPRAM HYDROBROMIDE]
28 | Compound metabolized | Cc1ccc(S(=O)(=O)NC(=O)NN2CC3CCCC3C2)cc1 (stereo not given) [GLICLAZIDE]

conditions: human gut metagenome, 24 h, 2 µM; remark: another data set of the same source

Row | Bacterial Biotransformation | Compound
29 | Compound NOT metabolized | Br.CN(C)CCCC1(c2ccc(F)cc2)OCc2cc(C#N)ccc21 (stereo not given) [CITALOPRAM HYDROBROMIDE]
30 | Compound metabolized | Cc1ccc(S(=O)(=O)NC(=O)NN2CC3CCCC3C2)cc1 (stereo not given) [GLICLAZIDE]

conditions: human gut metagenome, 24 h, 2 µM; remark: another data set of the same source

Row | Bacterial Biotransformation | Compound
31 | Compound NOT metabolized | Br.CN(C)CCCC1(c2ccc(F)cc2)OCc2cc(C#N)ccc21 (stereo not given) [CITALOPRAM HYDROBROMIDE]
32 | Compound NOT metabolized | Cc1ccc(S(=O)(=O)NC(=O)NN2CC3CCCC3C2)cc1 (stereo not given) [GLICLAZIDE]

test: as §1, with “on Z-018” for “on Z-007”, “to pig” for “to rat”, “number: ERS12561817” for “number: ERS12561807”; conditions: 2 µM

Row | Bacterial Biotransformation | Compound
33 | Compound NOT metabolized | Br.CN(C)CCCC1(c2ccc(F)cc2)OCc2cc(C#N)ccc21 (stereo not given) [CITALOPRAM HYDROBROMIDE]
34 | Compound metabolized | Cc1ccc(S(=O)(=O)NC(=O)NN2CC3CCCC3C2)cc1 (stereo not given) [GLICLAZIDE]

test: as §1, with “on Z-003” for “on Z-007”, “to pig” for “to rat”, “number: ERS12561803” for “number: ERS12561807”; conditions: 2 µM

Row | Bacterial Biotransformation | Compound
35 | Compound NOT metabolized | Br.CN(C)CCCC1(c2ccc(F)cc2)OCc2cc(C#N)ccc21 (stereo not given) [CITALOPRAM HYDROBROMIDE]
36 | Compound metabolized | Cc1ccc(S(=O)(=O)NC(=O)NN2CC3CCCC3C2)cc1 (stereo not given) [GLICLAZIDE]

conditions: human gut metagenome, 24 h, 2 µM; remark: another data set of the same source

Row | Bacterial Biotransformation | Compound
37 | Compound metabolized | Br.CN(C)CCCC1(c2ccc(F)cc2)OCc2cc(C#N)ccc21 (stereo not given) [CITALOPRAM HYDROBROMIDE]
38 | Compound metabolized | Cc1ccc(S(=O)(=O)NC(=O)NN2CC3CCCC3C2)cc1 (stereo not given) [GLICLAZIDE]

test: as §1, with “Z-012” for “Z-007”, “to” for “to rat gut”, “ERS12561812” for “ERS12561807”; conditions: 2 µM

Row | Bacterial Biotransformation | Compound
39 | Compound NOT metabolized | Br.CN(C)CCCC1(c2ccc(F)cc2)OCc2cc(C#N)ccc21 (stereo not given) [CITALOPRAM HYDROBROMIDE]
40 | Compound metabolized | Cc1ccc(S(=O)(=O)NC(=O)NN2CC3CCCC3C2)cc1 (stereo not given) [GLICLAZIDE]
